# Laboratory results taken from patent US6984639B2, “Heterocyclic ketone and thioester compounds and uses” (GPI NIL Holdings, Inc., priority 1996, dated 2006).
# Like-named read-outs stand apart in the source and are kept apart here.
# Tests used:
# [1] = system: MPTP lesioning of dopaminergic neurons in mice; assay: MPTP Model of Parkinson's Disease; format: in vivo; conditions: test compound 4 mg/kg s.c.; MPTP 30 mg/kg i.p. for 5 days; CD1 mice; striatum, 18 days following MPTP
# Procedure: MPTP lesioning of dopaminergic neurons in mice was used as an animal model of Parkinson's Disease. Four week old male CD1 white mice were dosed i.p. with 30 mg/kg of MPTP for 5 days. Test compounds (4 mg/kg), or vehicle, were administered s.c. along with the MPTP for 5 days, as well as for an additional 5 days following cessation of MPTP treatment. At 18 days following MPTP treatment, the animals were sacrificed and the striata were dissected and homogenized. Immunostaining was performed on saggital and coronal brain sections using anti-tyrosine hydroxylase […] to quantitate survival and recovery of dopaminergic neurons.
# The results of these experiments are presented in TABLE IV under the column “% TH recovery”.
# [2] = system: cultured chick sensory neurons from dorsal root ganglia; assay: Chick Dorsal Root Ganglion Cultures and Neurite Outgrowth; format: cell-based; conditions: for EC50: neurite outgrowth, 48 hours after drug treatment, from dose-response curves, read-out: ED50 (the source's name)
# Procedure: Dorsal root ganglia were dissected from chick embryos of ten day gestation. Whole ganglion explants were cultured on thin layer Matrigel-coated 12 well plates with Liebovitz L15 plus high glucose media supplemented with 2 mM glutamine and 10% fetal calf serum, and also containing 10 μm cytosine β-D arabinofuranoside (Ara C) at 37° C. in an environment containing 5% CO2. Twenty-four hours later, the DRGs were treated with various concentrations of nerve growth factor, immunophilin ligands or combinations of NFG plus drugs. Forty-eight hours after drug treatment, the ganglia were visualized under phase contrast or Hoffman Modulation contrast with a Zeiss Axiovert inverted microscope. Photomicrographs of the explants were made, and neurite outgrowth was quantitated. Neurites longer than the ORG diameter were counted as positive, with total number of neurites quantitated per each experimental condition. Three to four DRGs are cultured per well, and each treatment was performed in duplicate.
# Dose-response curves were generated from which ED50 values were obtained.
Molecule,% TH recovery [1] [%],EC50 [2] [nM],further results
"3,3-Diphenyl-1-propyl (2S)-1-(3,3-dimethyl-1,2-dioxopentyl)-2-pyrrolidinecarbothioate [Compound 32]",56,–,–
"4-Phenyl-1-butyl (2S)-1-(3,3-dimethyl-1,2-dioxopentyl)-2-pyrrolidinecarbothioate [Compound 30]",48,0.9,–
"2-Phenyl-1-ethyl 1-(3,3-dimethyl-1,2-dioxopentyl)-2-piperidinecarbothioate [Compound 10]",54,0.8,neurite outgrowth in sensory neurons (photomicrograph) ([2]; 10 pM): promoting neurite outgrowth; neurite outgrowth in sensory neurons (photomicrograph) ([2]; 1 nM): promoting neurite outgrowth; neurite outgrowth in sensory neurons (photomicrograph) ([2]; 100 nM): promoting neurite outgrowth
"CCC(C)(C)C(=O)C(=O)N1CCC[C@H]1C(=O)CCCCc1ccccc1 [Compound 1, (2S)-3,3-dimethyl-1-[2-(5-phenylpentanoyl)pyrrolidinyl]pentane-1,2-dione]",23,0.4,neurite outgrowth in sensory neurons (photomicrograph) ([2]; 10 pM): promoting neurite outgrowth; neurite outgrowth in sensory neurons (photomicrograph) ([2]; 1 nM): promoting neurite outgrowth; neurite outgrowth in sensory neurons (photomicrograph) ([2]; 1 μM): promoting neurite outgrowth
"3-Phenyl-1-propyl (2S)-1-(2-cyclohexyl-1,2-dioxoethyl)-2-pyrrolidinecarbothioate [Compound 28]",52,–,–
"O=C(C(=O)N1CCC[C@H]1C(=O)CCCCc1ccccc1)C1CCCCC1 [Compound 62, (2S)-2-(1-Oxo-5-phenyl)pentyl-1-(2-Cyclohexyl-1,2-dioxoethyl)pyrrolidine]",38,–,"EC50 ([2]; Gallus gallus, Neuron): 5 nM"
CCC(C)(C)C(=O)C(=O)N1CCCC1C(=O)SCc1csc2ccccc12 (stereo not shown) [Compound 11],53,0.36,–
"3,3-Diphenylpropyl 1-(3,3-dimethyl-2-oxopentanoyl)-2-piperidinecarbothioate [Compound 46]",62,–,–
"2,2-Diphenylethyl (2S)-1-(3,3-dimethyl-2-oxopentanoyl)-2-pyrrolidinecarbothioate [Compound 44]",28,–,–
"2-Phenyl-1-ethyl (2S)-1-(3,3-dimethyl-1,2-dioxopentyl)-2-pyrrolidinecarbothioate [Compound 9]",61,0.5,–
"3-(1-Naphthyl)-1-propyl (2S)-1-(3,3-dimethyl-2-oxopentanoyl)-2-pyrrolidinecarbothioate [Compound 43]",50,–,–
"2-Phenyl-1-ethyl 1-(2-phenyl-1,2-dioxoethyl)-2-piperidinecarbothioate [Compound 14]",48,0.9,–
"3-(1-Naphthyl)-1-propyl 1-(3,3-dimethyl-1,2-dioxopentyl)piperidine-2-carbothioate [Compound 40]",25,–,–
"CCC(C)(C)C(=O)C(=O)N1CCC[C@H]1C(=O)CCCC(c1ccc(F)cc1)c1ccc(F)cc1 [Compound 66, (2S)-2-[5,5-di(4-Fluorophenyl)pentanoyl]-1-(3,3 dimethyl-1,2-pentanedione)pyrrolidine]",25,–,–
"3-(para-Methoxyphenyl)-1-propyl (2S)-1-(3,3-dimethyl-1,2-dioxopentyl)-2-pyrrolidinecarbothioate [Compound 34]",37.32,0.011,–
"2-Phenyl-1-ethyl (2S)-1-(2-cyclohexyl-1,2-dioxoethyl)-2-pyrrolidinecarbothioate [Compound 12]",–,0.025,–
CC(C)(C)C(=O)C(=O)N1CCCCC1C(=O)C(CCc1ccccc1)CCc1ccccc1 (stereo not shown) [Compound 65],23,–,–
